What was measured:
alphav integrins = target: T1, alphav integrins (Homo sapiens, UniProt P06756); settings: large number of patients, phase III; cited from earlier work
T1 construct: host or cells: patients

[1] = system: U87 MG cells and SV40 human microglia cells; assay: Matrigel invasiveness of U87 MG cells with SV40 human microglia; format: cell-based
Experimental: (§1) FIG. 4. Effect of OPN binding peptides on U87 MG cell invasiveness in the presence of murine BV2 and human SV40 microglial cells. (K−)—negative control—invasiveness of U87 MG cells without microglia; (K+)—positive control, invasiveness of U87 MG dependent on BV2 or SV40 microglia, defined as 100%; DMSO-cells treated with 0.2% DMSO-peptide solvent. Results are presented as means ±standard deviation calculated from three independent biological replicates. Selected peptides block microglia-dependent invasiveness.
(§2) Studies conducted by the present inventors indicate an important role of the OPN protein in the reprogramming of microglia and peripheral macrophages by glioblastoma cells to a protumorigenic phenotype (Ellert-Miklaszewska et al. 2016). […] Investigating the contribution of human OPN to human glioblastoma growth is important in the context of using a peptide that binds human OPN produced by glioma and can block communication between the glioma and the microenvironment. The U87 MG RFP human glioblastoma cell line was established with silenced expression of the OPN protein (shOPN). […] The number of glioma cells actively penetrating the Matrigel Matrix layer (BD Biosciences, extracellular matrix surrogate) in the presence of SV40 human microglial cells was counted. Microglial cells are plated on 24-well plate, after 24 hours, inserts previously covered with Matrigel suspension are placed in the wells, and glioblastoma cells are seeded on its surface. The tested compounds, potentially blocking the invasiveness of cells, are added in a certain concentration to the medium in both the lower and upper layers of the system. After 18 hours of incubation, the Matrigel is removed and the cells on the insert membrane (invading cells) are fixed and stained with a DAPI fluorescent marker. Slides were then photographed using a fluorescence microscope and cells were counted using Image J software (imagej.nih.gov/ij/).
(§3) The effect of selected OPN-binding peptides on the invasiveness of U87 MG cells stimulated by the presence of microglial cells was investigated. […]

[2] = system: U87 MG cells stimulated by BV2 microglial cells; assay: Matrigel invasiveness of U87 MG cells in co-culture with BV2 microglia; format: cell-based, human; settings: 100 μM, 18 h
Experimental: as §1, §2, §3

recombinant OPN protein = recombinant OPN protein (Homo sapiens, UniProt P10451); assay: ELISA assessing peptide-protein binding; settings: N-terminal biotin peptides on OPN-coated plates
Experimental: FIGS. 2A and 2B. OPN-binding peptides. (FIG. 2A) OPN binding peptides were identified using peptide microarrays comprising synthetic peptides. Images of peptide microarrays after incubation with PBS buffer (control), with rhOPN and after immunochemical staining. Control peptides (peptide containing Myc tag—positive control) and peptides with the highest signal were marked on the microarray image. (FIG. 2B) OPN binding peptides identified using ELISA. Peptides with the strongest binding to OPN were selected. Means ±SD are shown, standard deviations were calculated from three independents measurements.
To verify the obtained results, the ELISA method assessing peptide-protein binding was used. In the assay, 96-well ELISA plates were coated with recombinant OPN protein. Uncoated wells were used as controls. Unbound proteins were then washed away and the remaining non-specific binding was blocked with bovine serum protein (BSA). Test peptides with N-terminal biotin attached were added. After incubation, unbound peptides were removed by washing several times. Peptides that bound to OPN were detected using a primary anti-biotin antibody and a secondary antibody linked to horseradish peroxidase. This enzyme catalyses a reaction in which a coloured product is formed from the added substrate. The amount of bound peptides was proportional to the amount of coloured product, which was measured using a spectrophotometer. Of the 52 integrin receptor-derived peptides tested, 9 OPN-binding peptides were identified: I3, I4, I20, I32, I38, I40, I47, I49, I50 (FIG. 2B). The following peptides were selected for further analysis: […], I4, I20, I32, I38, I40, I47, I49, I50.

[3] = system: human glioblastoma U87 MG RFP cells implanted in the brain of nude mice; assay: Mouse model of human glioblastoma, intratumoural osmotic pump, MRI tumour size; format: in vivo; settings: osmotic pump for 3 weeks, MRI T2, control peptide I49S
Experimental: FIGS. 5A and 5B. Effect of peptide 149 on glioblastoma growth in mice. (FIG. 5A) Representative images obtained after vital MRI imaging. The pictures show a section through the center of the tumour, showing the cannula supplying the peptide from the osmotic pump. (FIG. 5B) Tumour volume (n=10) calculated using OsiriX DICOM Viewer from MRI scans.
The anticancer effect of the 149 peptide has been tested. The model of human glioblastoma U87 MG RFP cells implanted in the brain of nude (immunodeficient) mice was used. Peptides were administered via osmotic pumps delivering the peptide directly to the tumour at a constant rate. […] Peptide I49 or control peptide I49S were administered using pumps for 3 weeks, pumps were installed in the mouse brain immediately after implantation of U87 MG RFP cells. Magnetic resonance imaging (MRI T2) was used to assess the size of the tumours.

recombinant OPN protein, sequence (P10451 17-314): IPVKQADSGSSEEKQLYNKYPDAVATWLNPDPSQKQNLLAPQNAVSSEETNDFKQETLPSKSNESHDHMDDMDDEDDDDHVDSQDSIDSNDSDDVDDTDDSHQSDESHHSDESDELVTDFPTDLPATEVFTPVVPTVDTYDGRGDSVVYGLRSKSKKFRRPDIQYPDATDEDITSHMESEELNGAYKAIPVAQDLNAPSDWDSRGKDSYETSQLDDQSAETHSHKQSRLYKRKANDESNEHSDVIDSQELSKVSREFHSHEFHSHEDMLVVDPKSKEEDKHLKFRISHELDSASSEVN
T1 sequence (P06756 31-1048): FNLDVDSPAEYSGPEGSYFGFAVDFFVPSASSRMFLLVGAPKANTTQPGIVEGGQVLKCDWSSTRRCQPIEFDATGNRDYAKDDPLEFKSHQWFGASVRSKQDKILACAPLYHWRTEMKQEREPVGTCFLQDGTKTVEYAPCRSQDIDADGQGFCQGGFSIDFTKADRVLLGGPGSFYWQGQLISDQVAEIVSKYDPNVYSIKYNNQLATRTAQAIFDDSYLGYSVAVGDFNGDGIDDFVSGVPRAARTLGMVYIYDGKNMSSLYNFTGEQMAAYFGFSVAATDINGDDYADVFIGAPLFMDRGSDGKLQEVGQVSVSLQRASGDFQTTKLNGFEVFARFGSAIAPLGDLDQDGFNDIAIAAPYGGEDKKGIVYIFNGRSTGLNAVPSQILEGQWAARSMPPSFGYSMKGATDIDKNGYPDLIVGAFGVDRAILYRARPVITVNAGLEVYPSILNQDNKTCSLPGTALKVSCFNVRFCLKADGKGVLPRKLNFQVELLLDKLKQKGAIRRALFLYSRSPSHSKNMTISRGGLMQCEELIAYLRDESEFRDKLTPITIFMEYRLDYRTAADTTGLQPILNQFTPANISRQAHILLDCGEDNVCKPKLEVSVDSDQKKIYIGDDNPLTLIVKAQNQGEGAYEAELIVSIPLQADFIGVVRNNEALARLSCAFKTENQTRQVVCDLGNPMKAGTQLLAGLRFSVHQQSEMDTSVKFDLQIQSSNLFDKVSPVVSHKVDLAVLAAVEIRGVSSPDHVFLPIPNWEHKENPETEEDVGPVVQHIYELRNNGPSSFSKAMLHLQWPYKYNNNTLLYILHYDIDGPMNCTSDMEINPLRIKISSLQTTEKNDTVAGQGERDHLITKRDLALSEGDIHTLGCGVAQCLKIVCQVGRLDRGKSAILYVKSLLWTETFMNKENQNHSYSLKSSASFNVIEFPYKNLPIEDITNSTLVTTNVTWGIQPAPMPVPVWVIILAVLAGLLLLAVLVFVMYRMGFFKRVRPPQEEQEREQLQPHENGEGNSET

Compound | clinical effectiveness (alphav integrins) | effect on invasiveness of U87 cells in the presence of human SV40 microglia [1] | inhibition of microglia-dependent glioma cell invasiveness [2] | peptide binding to OPN in ELISA (recombinant OPN protein) | tumour growth compared to the control group [3]
CC(C)[C@H]1C(=O)N[C@@H](CCCN=C(N)N)C(=O)NCC(=O)N[C@@H](CC(=O)O)C(=O)N[C@H](Cc2ccccc2)C(=O)N1C [cilengitide, cyclo-(Arg-Gly-Asp-DPhe-NMe-Val)] | did not show the effectiveness |  |  |  | 
SKYDPNVYSIKYNN (listed as Homo sapiens) [I40] |  | inhibited the invasiveness | inhibited microglia-dependent glioma cell invasiveness | OPN-binding | 
SLYNFTGEQMAAYF (listed as Homo sapiens) [I50] |  | inhibited the invasiveness | inhibited microglia-dependent glioma cell invasiveness | OPN-binding | 
YDGKNMSSLYNFTG [I49] |  | inhibited the invasiveness | inhibited microglia-dependent glioma cell invasiveness | OPN-binding | reduction in tumour growth
